Assay results reported in ChEMBL document CHEMBL5729671, “Substituted pyrazolo[1,5-a]pyrazines as negative allosteric modulators of group II metabotropic glutamate receptor” (2023).

Target: Metabotropic glutamate receptor 2 (Homo sapiens, UniProt Q14416)
Assay: Assessment of mGlu2 Receptor Negative Allosteric Modulator Activity: Human mGlu2 receptor stable expressing cells were prepared and incubated. Luminescence signals by mGlu2 receptor stimulation were detected with FDSS7000 (Hamamatsu Photonics). The compound solution prepared above was added to a plate where cells and luminescent substrates were added (10 μl/well). After 120 seconds of the addition, EC80 Glutamate-containing solution was added thereto (10 μl/well), and luminescence signals were measured for 300 seconds after the addition (center wavelength: 465 nm) for calculation of RLU (Integration). mGlu2 receptor negative allosteric modulator activity of a compound was calculated by (100-100×(RLU of each compound and concentration)/(RLU of DMSO group)).The present compound was assessed with the above biological test, and the compounds with mGlu2 receptor negative allosteric modulator activity were found out.

Chain of Metabotropic glutamate receptor 2 (Q14416 whole entry): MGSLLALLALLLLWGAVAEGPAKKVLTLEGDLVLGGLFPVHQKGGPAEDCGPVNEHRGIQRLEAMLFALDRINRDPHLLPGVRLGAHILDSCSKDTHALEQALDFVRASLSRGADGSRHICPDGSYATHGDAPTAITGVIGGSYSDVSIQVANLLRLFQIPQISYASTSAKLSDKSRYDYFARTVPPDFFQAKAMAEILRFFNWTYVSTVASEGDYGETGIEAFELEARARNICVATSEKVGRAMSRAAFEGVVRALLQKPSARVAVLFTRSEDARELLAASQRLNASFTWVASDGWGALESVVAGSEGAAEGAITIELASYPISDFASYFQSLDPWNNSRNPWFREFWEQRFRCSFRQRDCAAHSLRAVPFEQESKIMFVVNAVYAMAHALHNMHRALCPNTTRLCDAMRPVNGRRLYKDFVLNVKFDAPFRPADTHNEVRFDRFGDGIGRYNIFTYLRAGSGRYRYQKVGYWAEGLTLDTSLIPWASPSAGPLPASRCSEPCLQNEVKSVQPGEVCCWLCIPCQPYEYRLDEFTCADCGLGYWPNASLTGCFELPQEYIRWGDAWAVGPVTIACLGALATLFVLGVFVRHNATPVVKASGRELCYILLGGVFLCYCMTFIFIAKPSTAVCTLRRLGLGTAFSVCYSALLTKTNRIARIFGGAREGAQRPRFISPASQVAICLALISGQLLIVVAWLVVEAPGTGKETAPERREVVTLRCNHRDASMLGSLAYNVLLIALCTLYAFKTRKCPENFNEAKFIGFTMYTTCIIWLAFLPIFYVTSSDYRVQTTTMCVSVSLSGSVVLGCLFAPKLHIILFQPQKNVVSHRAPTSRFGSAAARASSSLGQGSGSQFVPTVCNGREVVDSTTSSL

Compound | IC50 [nM]
C[C@H]1CN(c2ccc(Cl)c(F)c2)C(=O)c2c(-c3ccc4nccn4c3)cnn21 | 18
Cc1cnc2ccc(-c3cnn4c3C(=O)N(c3ccc(C(F)(F)F)cc3)C[C@@H]4C)cn12 | 9.1
CCc1cnc2ccc(-c3cnn4c3C(=O)N(c3ccc(C(F)(F)F)cc3)C[C@@H]4C)cn12 | 7.8
C[C@H]1CN(c2ccc3c(c2)OC(F)(F)O3)C(=O)c2c(-c3ccc4nccn4c3)cnn21 | 19
C[C@H]1CN(c2ccc(C(F)(F)F)cn2)C(=O)c2c(-c3ccc4nccn4c3)cnn21 | 16
Cc1cc(N2C[C@H](C)n3ncc(-c4ccc5ncc(C)n5c4)c3C2=O)ccc1F | 16
C[C@H]1CN(c2ccc(Cl)cc2)C(=O)c2c(-c3ccc4nccn4c3)cnn21 | 26
